# Measured values from PMC6235002, “Born to sense: biophysical analyses of the oxygen sensing prolyl hydroxylase from the simplest animal Trichoplax adhaerens” (Hypoxia, 2018).
# “Also recorded” adds a separate entry of the source. Read-outs that look alike come from different tables or passages of the source.
# B1: TaPHD^64-300 (Trichoplax adhaerens) (protein)
# chain: MDERRPKIGCDKTGLALEKTWQLQKNERLSNMVVNQLNTNGFCIINNFLGSSCSTEVLQQVLNLYQSGVFSNGQLARNVSVNRIRGDKIAWIGGDERGCEAIKYLSSCVDSLISRCNGRLGNYMITGRTKCMVACYPGSGLGYIRHIDNPNRDGRCVTVLYYLNPNWNSQDCGGQLWLYPNNENKVVKIDPIFDRLLLFWSDRRNPHEVKPAYAMRYAITLWYFDEKERALSSQNGT
# Legend:
# TaPHD^64-300 [1] = target: T1, TaPHD^64-300 (Trichoplax adhaerens, UniProt I6QVT6); experiment: Steady-state O2-dependence of TaPHD (MALDI-TOF-MS); assay type: biochemical; conditions: TaPHD^64-300 with TaODD 25mer
# Procedure: (§1) Notes: (A) Sequence alignment of TaHIFa, HsHIFa, and substrates of PHD-like enzymes in Dictyostelium discoideum (DdSkp1) and Pseudomonas putida (PpEF-Tu). […] Peptide hydroxylation was analyzed by MALDI-MS; the apparent non-enzymatic Met oxidation was subtracted. Data were fitted with the Michaelis-Menten equation using GraphPad Prism® (errors are indicated as standard deviations, n=3).
# In order for the PHDs to act as hypoxia sensors in cells, their activity must be limited by oxygen availability. […] In order to study the O2 dependence of the TaPHD-catalyzed reaction, steady-state kinetics, using reported experimental conditions for HsPHD2;[29] were conducted. TaPHD^64-300 was reacted with its peptidic substrate in sealed glass-vials under varied oxygen concentrations,[29] the initial rates of TaODD 25mer hydroxylation were determined by MALDI–TOF-MS (Figure 2F and G).
# HsPHD2 = conditions: read-out: Km (O2); cited from earlier work
# HsPHD2^181-426 [2] = target: T2, HsPHD2^181-426 (Homo sapiens, UniProt Q9GZT9); experiment: MALDI-TOF-MS peptide hydroxylation steady-state kinetics, HsPHD2^181-426; assay type: biochemical; conditions: peptide varied, 3.5–7.0 µM enzyme, 50 µM (NH4)2Fe(II)(SO4)2, 4 mM ascorbate, 300 µM 2OG; for Km: 50 mM Tris pH 7.5, Michaelis-Menten fit, ± SD, n=3, read-out: Km (peptide substrate); for kcat (peptide substrate): 50 mM Tris pH 7.5, ± SD, n=3
# T2 construct: compared to the truncated human PHD isoform 2 (HsPHD2^181-426)
# Procedure: as §1
# TaPHD^64-300 [3] = target: T1, TaPHD^64-300; experiment: MALDI-TOF-MS peptide hydroxylation steady-state kinetics, TaPHD^64-300; assay type: biochemical; conditions: for Km / kcat (peptide substrate): peptide varied, 3.5–7.0 µM enzyme, 50 µM (NH4)2Fe(II)(SO4)2, 4 mM ascorbate, 300 µM 2OG; for Km: 50 mM Tris pH 7.5, Michaelis-Menten fit, ± SD, n=3, read-out: Km (peptide substrate); for kcat (peptide substrate): 50 mM Tris pH 7.5, ± SD, n=3
# Procedure: as §1
# HsPHD2 P317R = HsPHD2 P317R variant; Figure S4, reference not given; cited from earlier work
# Text: (§2) In both the TaPHD.TaODD and HsPHD2.CODD[34] structures, a salt-bridge between an arginine residue in the C-terminal α4-helix and an aspartate residue in the C-terminus of the respective peptide (R292TaPHD/D494TaODD, R396HsPHD2/D571HsHIF1α CODD) is formed (Figure S4). However, this salt-bridge is not present in the HsPHD2.NODD complex structure, where the HsHIF1α NODD peptide is positioned further from the C-terminal helix and interacts with the C-terminal region of HsPHD2 via hydrophobic contacts. Studies with the TaODD and HsPHD2 variants, including with HsPHD2 P317RHsPHD2 and R396THsPHD2, wh ...
# TaPHD^64-300 [4] = target: T1, TaPHD^64-300; experiment: 1D CLIP HSQC NMR binding studies with [^13C]-prolyl-labelled reporter ODD peptides; conditions: 1:1 enzyme:ODD, 50 µM [^13C]-proline-labelled peptide, 50 µM TaPHD, Zn(II), 50 µM 2OG, 50 mM Tris-D11 pH 7.5, 10% D2O/90% H2O, n=3
# Procedure: as §1
# To more directly investigate the extent to which TaPHD^64-300 can bind HsHIF1α NODD and CODD, we performed 1D CLIP HSQC NMR binding studies with HsHIF1α CODD and HsHIF1α NODD peptides labeled with [^13C] at the target prolyl residues which undergo hydroxylation during catalysis (Figure 2C).
# HsPHD2^181-426 [5] = target: T2, HsPHD2^181-426; parameters: method as in PMID 25120187; conditions: previous studies, read-out: Km (peptide substrate), previous studies; cited from earlier work
# TaPHD^64-300 [6] = target: T1, TaPHD^64-300; conditions: TaPHD with natural substrate (500 µM); 20 µM enzyme, 125 µM Fe(II), 1 mM ascorbate, 400 µM 2OG, 50 mM Tris-D11 pH 7.5; ^1H NMR
# HsPHD2 R396T = HsPHD2 R396T variant; Figure S4, reference not given; cited from earlier work
# Text: as §2
# TaPHD^64-300 [7] = target: T1, TaPHD^64-300; conditions: relative to TaODD 25mer and CODD 19mer; cited from earlier work
# Text: The HIF system in T. adhaerens is apparently markedly simpler than in humans because it contains only one PHD (TaPHD), and one HIFα isoform with a single ODD (TaODD, Figure 1A).[16] […] To further investigate the substrate preferences of TaPHD^64–300, its affini ...
# [8] = substrate: O=C(O)CCC(=O)C(=O)O; experiment: MALDI-TOF-MS peptide hydroxylation steady-state kinetics, TaPHD^64-300; assay type: biochemical, Trichoplax adhaerens; conditions: other: TaPHD^64-300, 2OG varied, 100 µM peptide, 50 µM (NH4)2Fe(II)(SO4)2, 4 mM ascorbate, 50 mM Tris pH 7.5, ± SD, n=3, 37.0 °C
# T2 sequence (Q9GZT9 181-426): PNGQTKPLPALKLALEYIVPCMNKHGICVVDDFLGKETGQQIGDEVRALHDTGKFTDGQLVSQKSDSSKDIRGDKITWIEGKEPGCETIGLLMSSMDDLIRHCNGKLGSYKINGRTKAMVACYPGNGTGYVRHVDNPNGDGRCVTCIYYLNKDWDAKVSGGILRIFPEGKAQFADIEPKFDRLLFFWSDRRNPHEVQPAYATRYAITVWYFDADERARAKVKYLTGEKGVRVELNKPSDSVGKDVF
Molecule,Km (HsPHD2^181-426 [2]),kcat (peptide substrate) (HsPHD2^181-426 [2]),hydroxylation by TaPHD (in words) (TaPHD^64-300 [3]),Km (TaPHD^64-300 [3]),kcat (peptide substrate) (TaPHD^64-300 [3]),other results
"O=O [O2, oxygen]",,,,,,"Km (TaPHD^64-300 [1]; 4 µM enzyme, 100 µM TaODD, 50 µM Fe(II), 300 µM 2OG, 4 mM ascorbate, 50 mM Tris pH 7.5, 37°C, varied % O2, n=3): > 400 µM; O2 saturation (in words) (TaPHD^64-300 [1]; at 60% O2 level, 37°C, pH 7.5): No saturation of O2 was reached; Km (HsPHD2): > 400 µM"
"PINEKEDYDDLAPFVPPPSFDNRLY-NH2 [TaODD 25mer, 25mer peptide of the single ODD of T. adhaerens HIFα, natural substrate of TaPHD]",40.5 ± 4.9 µM,0.035 ± 0.002 s⁻¹,efficiently catalyzes the hydroxylation,11.5 ± 1.8 µM,0.026 ± 0.001 s⁻¹,
"DLDLEMLAPYIPMDDDFQL-NH2 [HsHIF1α CODD 19mer, 19mer peptide of the human HIF1α C-terminal ODD]",10.8 ± 1.9 µM,0.027 ± 0.001 s⁻¹,efficiently catalyzes the hydroxylation,15.1 ± 2.2 µM,0.012 ± 0.001 s⁻¹,ODD selectivity of HsPHD2 P317R (in words) (HsPHD2 P317R): selective for CODD; binding to TaPHD (in words) (TaPHD^64-300 [4]): higher binding affinity of TaPHD for HsHIF1α CODD over NODD; also recorded: apparently completely bound; Km (HsPHD2^181-426 [5]): 9 ± 3 µM
"O=C(O)CCC(=O)C(=O)O [2OG, 2-oxoglutarate]",,,,,,2OG decarboxylation in presence of substrate (TaPHD^64-300 [6]): strongly increased in presence of substrate
"DALTLLAPAAGDTIISLDF-NH2 [HsHIF1α NODD 19mer, 19mer peptide of the human HIF1α N-terminal ODD]",,,not turned over above background level,,,"ODD selectivity of HsPHD2 R396T (in words) (HsPHD2 R396T): NODD; hydroxylation by TaPHD, earlier report (in words) (TaPHD^64-300 [7]): hydroxylated less efficiently"
B1,,,,,,Km [8]: 1.9 ± 0.3 µM
